US10912763B2 (priority 2010, dated 2021)

Assay: Pharmacological activity of the decomposition product

Question: With `Fc1ccc2[nH]c3c(c2c1)CCOC31CC=C(c2ccccc2)CC1` (stereo not shown) [6′-fluoro-4-phenyl-4′,9′-dihydro-3′H-spiro[cyclohex-3-ene-1,1′-pyrano[3,4-b]indole]] as the compound, how does the Pharmacological activity read?
Answer: Its Pharmacological activity is “pharmacologically inactive”.
